Consider 19 compounds from patent publication US9938301B2, “Dihydropyrimido fused ring derivative as HBV inhibitor” (QILU PHARMACEUTICAL CO., LTD., priority 2014, dated 2018).

Where only a bound is given, the exact number is not on record here.

For one assay, the system named is HBV DNA in HepG2.2.15 cells. Put plainly: HBV in vitro dot-blot hybridization test. In kind it is cell-based, Hepatitis B virus. As to conditions: Hepatitis B virus, HepG2.2.15, dot-blot hybridization assay, read-out: Concentration for 50% inhibition of HBV (EC50)value. As for the experimental part:
• 1. Purpose of the test: • The content of HBV DNA in HepG2.2.15 cells was detected by dot-blot hybridization test to evaluate an inhibitory action of the compound on HBV with an EC50 value as an indicator. • 2. Experimental materials: • 2.1 Cell lines: HepG2.2.15 Cells • HepG2.2.15 cell culture media (DMEM/F12, Invitrogen-11330057; 10% serum Invitrogen-10099141; 100 units/mL Penicillin and 10 μg/mL Streptomycin, Invitrogen-15140122; 1% non-essential amino acid, Invitrogen-11140076; 2 mM L-GLUTAMINE, Invitrogen-25030081; 300 µg/ml Geneticin, Invitrogen-10131027 • 2.2 Reagents: • Trypsin (I Invitrogen-25300062) • DPBS (Hyclone-SH30028.01B) • DMSO (Sigma-D2650-100ML) • 96-well cell-culture plate (Corning-3599) • CO2 incubator (HERA-CELL-240) • 20×SSC (Bio-serve Co. Ltd) • Tris-HCl (Aldirch-154563-1KG) • NaOH (Sinopharm 10019718) • NaCl (Sinopharm 10019308) • Hybridization solution (Major BioTech Co. Ltd, IMMUNE GOLD-HYB-500) • DIG Wash and Block Buffer set (Roche-11585762001) • Anti-digoxigenin-AP, Fab fragments from sheep (Roche-11093274910) • 2.3 Materials and Instruments: • Positively-Charged Nylon Membrane (GE-RPN2250B) • Transfer Membrane Instrument (Bio-Rad, 170-6545) • Hybridization Oven (HL-2000 Hybrilinker) • 3. Testing steps and Methods: • 3.1 HepG2.2.15 cells (4×10^4 cells/well) were planted into a 96-well plate, and at 37° C., 5% CO2 cultured overnight. • 3.2 On Day 2, the compounds were diluted in totally 6 concentrations with a dilution gradient of five times. The compounds at different concentrations were added into the culture wells in duplicate. The final concentration of DMSO in the culture media was 1%. 1 μM GLS4 was used as 100% inhibition control; 1% DMSO as 0% inhibition control. • 3.3 On Day 5, replacing with the fresh culture media containing the compound was performed. • 3.4 On Day 8 and Day 9, the culture media in the culture wells was removed, and the cells were harvested for dot-blot hybridization. • The lysate was added into a culture well, and at 37° C. incubating for half an hour to disintegrate cells; the supernatant was obtained by centrifugation and transferred into a new microplate; a denaturation solution was added, after sufficient mixing the denatured sample was transferred and imprinted onto a Nylon membrane, the nucleic acid was fixed onto the membrane by UV cross-linking. • Pre-hybridization: the membrane was incubated at 60° C. in a hybridization solution for 1 hour. • Hybridization: heating the denatured digoxin-labelled HBV DNA probe and incubating at 60° C. overnight. • Membrane Washing: performing high strigency washing twice, low strigency washing for 3 times. • Blocking: incubating the membrane at room temperature in a blocking solution for 30-60 minutes. • Hybridization: diluting the Antibody Solution with the blocking solution, in which the membrane was placed and incubated at room temperature for 30-60 minutes. • Developing: washing the membrane in a Detection Buffer for 5 minutes, followed by adding a developing solution, pressing and exposing. • The photos was saved in tiff format, and a gray value of the dot was quantified with quantity one software. • 3.5 Data Analysis: • 3.5.1 The inhibition percentage was calculated: % Inh.=[1−(sample dot gray value−1 μM GLS4 dot gray value 1)/(DMSO control dot gray value−1 μM GLS4 dot gray value 1)]×100. • 3.5.2 Calculating EC50: the concentration of the compound for 50% inhibition of HBV (EC50) was calculated by using GraphPad Prism Software. • 4.
As for `CCOC(=O)C1=C2C[C@H](NC(=O)OC)CN2C(c2nccs2)=N[C@H]1c1ccc(F)cc1Br` [Example 44], the EC50 is below 100 nM.
For `CCOC(=O)C1=C2CC(NC(=O)OC(C)C)CN2C(c2nccs2)=N[C@H]1c1ccc(F)cc1Br` (some centres unmarked) [Example 46], the EC50 was 100 to 500 nM.
For `CCOC(=O)C1=C2C[C@H](NC(=O)OC(C)C)CN2C(c2nccs2)=N[C@H]1c1ccc(F)cc1Br` [Example 47], the EC50 is below 100 nM.
Regarding `CCOC(=O)C1=C2C[C@@H](NC(C)=O)CN2C(c2nccs2)=N[C@H]1c1ccc(F)cc1Br` [Example 49], the EC50 is 100 to 500 nM.
Consider `CCOC(=O)C1=C2C[C@H](NC(C)=O)CN2C(c2nccs2)=N[C@H]1c1ccc(F)cc1Br` [Example 50], for which the EC50 was in the range of 1000 to 5000 nM.
Still for that read-out and setting: the result for `CCOC(=O)C1=C2CC(NC(=O)NC)CN2C(c2nccs2)=N[C@H]1c1ccc(F)cc1Br` (some centres unmarked) [Example 52] reads 500 to 1000 nM; that for `CCOC(=O)C1=C2C[C@H](NC(=O)NC)CN2C(c2nccs2)=N[C@H]1c1ccc(F)cc1Br` [Example 53], below 100 nM.
As for `CCOC(=O)C1=C2C[C@@H](NS(=O)(=O)NC)CN2C(c2nccs2)=N[C@H]1c1ccc(F)cc1Br` [Example 55], the EC50 is below 100 nM.
Still for that read-out and setting: the result for `CCOC(=O)C1=C2C[C@H](N(C)S(=O)(=O)NC)CN2C(c2nccs2)=N[C@H]1c1ccc(F)cc1Br` [Example 56] reads below 100 nM; that for `CCOC(=O)C1=C2CC(NS(C)(=O)=O)CN2C(c2nccs2)=N[C@H]1c1ccc(F)cc1Br` (some centres unmarked) [Example 58], below 100 nM; that for `CCOC(=O)C1=C2C[C@H](NS(C)(=O)=O)CN2C(c2nccs2)=N[C@H]1c1ccc(F)cc1Br` [Example 59], below 100 nM.
As to `CCOC(=O)C1=C2CC(NS(=O)(=O)C3CC3)CN2C(c2nccs2)=N[C@H]1c1ccc(F)cc1Br` (some centres unmarked) [Example 61], the EC50 is below 100 nM.
Same read-out and setting: in the case of `CCOC(=O)C1=C2C[C@H](NS(=O)(=O)C3CC3)CN2C(c2nccs2)=N[C@H]1c1ccc(F)cc1Br` [Example 62] it was below 100 nM.
Take `CCOC(=O)C1=C2CC(NS(=O)(=O)C(F)(F)F)CN2C(c2nccs2)=N[C@H]1c1ccc(F)cc1Br` (some centres unmarked) [Example 63]: the EC50 was in the range of 100 to 500 nM.
With `CCOC(=O)C1=C2C[C@H](NS(=O)(=O)C(F)(F)F)CN2C(c2nccs2)=N[C@H]1c1ccc(F)cc1Br` [Example 64], the EC50 fell in the range of 100 to 500 nM.
For the compound `CCOC(=O)C1=C2C[C@@H](N3CCOC3=O)CN2C(c2nccs2)=N[C@H]1c1ccc(F)cc1Br` [Example 65], the EC50 was in the range of 100 to 500 nM.
With `CCOC(=O)C1=C2C[C@H](N3CCOC3=O)CN2C(c2nccs2)=N[C@H]1c1ccc(F)cc1Br` [Example 66], the EC50 lay in the range of 100 to 500 nM.
Consider `CCOC(=O)C1=C2CN(C(=O)OCC)CCN2C(c2nccs2)=NC1c1ccc(F)cc1Br` (centres unmarked) [Example 82], for which the EC50 is 100 to 500 nM.
In the case of `CCOC(=O)C1=C2CN(S(=O)(=O)NC)CCN2C(c2nccs2)=N[C@H]1c1ccc(F)cc1Br` [Example 84], the EC50 lay within 100 to 500 nM.

The assay is the same for the next values; noted with them: Hepatitis B virus, HepG2.2.15, summary list of target compounds, Examples 1-165 (same as Table 2), read-out: BIOACTIVITY (inhibitory actions on HBV DNA, EC50).
With `CCOC(=O)C1=C2C[C@H](NC(=O)OC)CN2C(c2nccs2)=N[C@H]1c1ccc(F)cc1Br` [Example 44], the EC50 was below 100 nM.
As to `CCOC(=O)C1=C2CC(NC(=O)OC(C)C)CN2C(c2nccs2)=N[C@H]1c1ccc(F)cc1Br` (some centres unmarked) [Example 46], the EC50 was in the range of 100 to 500 nM.
As to `CCOC(=O)C1=C2C[C@H](NC(=O)OC(C)C)CN2C(c2nccs2)=N[C@H]1c1ccc(F)cc1Br` [Example 47], the EC50 is below 100 nM.
On to `CCOC(=O)C1=C2C[C@@H](NC(C)=O)CN2C(c2nccs2)=N[C@H]1c1ccc(F)cc1Br` [Example 49], for which the EC50 was in the range of 100 to 500 nM.
`CCOC(=O)C1=C2C[C@H](NC(C)=O)CN2C(c2nccs2)=N[C@H]1c1ccc(F)cc1Br` [Example 50]: the EC50 lay within 1000 to 5000 nM.
Take `CCOC(=O)C1=C2CC(NC(=O)NC)CN2C(c2nccs2)=N[C@H]1c1ccc(F)cc1Br` (some centres unmarked) [Example 52]: the EC50 was 500 to 1000 nM.
The same measure, in the same setting: in the case of `CCOC(=O)C1=C2C[C@H](NC(=O)NC)CN2C(c2nccs2)=N[C@H]1c1ccc(F)cc1Br` [Example 53] it was below 100 nM; in that of `CCOC(=O)C1=C2C[C@@H](NS(=O)(=O)NC)CN2C(c2nccs2)=N[C@H]1c1ccc(F)cc1Br` [Example 55], below 100 nM.
On the same count and under the same terms, the result for `CCOC(=O)C1=C2C[C@H](N(C)S(=O)(=O)NC)CN2C(c2nccs2)=N[C@H]1c1ccc(F)cc1Br` [Example 56] reads below 100 nM.
As for `CCOC(=O)C1=C2CC(NS(C)(=O)=O)CN2C(c2nccs2)=N[C@H]1c1ccc(F)cc1Br` (some centres unmarked) [Example 58], the EC50 is below 100 nM.
Take `CCOC(=O)C1=C2C[C@H](NS(C)(=O)=O)CN2C(c2nccs2)=N[C@H]1c1ccc(F)cc1Br` [Example 59]: the EC50 is below 100 nM.
Regarding `CCOC(=O)C1=C2CC(NS(=O)(=O)C3CC3)CN2C(c2nccs2)=N[C@H]1c1ccc(F)cc1Br` (some centres unmarked) [Example 61], the EC50 is below 100 nM.
On the same count and under the same terms, in the case of `CCOC(=O)C1=C2C[C@H](NS(=O)(=O)C3CC3)CN2C(c2nccs2)=N[C@H]1c1ccc(F)cc1Br` [Example 62] it was below 100 nM; in that of `CCOC(=O)C1=C2CC(NS(=O)(=O)C(F)(F)F)CN2C(c2nccs2)=N[C@H]1c1ccc(F)cc1Br` (some centres unmarked) [Example 63], 100 to 500 nM; in that of `CCOC(=O)C1=C2C[C@H](NS(=O)(=O)C(F)(F)F)CN2C(c2nccs2)=N[C@H]1c1ccc(F)cc1Br` [Example 64], 100 to 500 nM.
Consider `CCOC(=O)C1=C2C[C@@H](N3CCOC3=O)CN2C(c2nccs2)=N[C@H]1c1ccc(F)cc1Br` [Example 65], for which the EC50 fell in the range of 100 to 500 nM.
`CCOC(=O)C1=C2C[C@H](N3CCOC3=O)CN2C(c2nccs2)=N[C@H]1c1ccc(F)cc1Br` [Example 66]: the EC50 lay in the range of 100 to 500 nM.
As to `CCOC(=O)C1=C2CN(C(=O)OCC)CCN2C(c2nccs2)=NC1c1ccc(F)cc1Br` (centres unmarked) [Example 82], the EC50 lay within 100 to 500 nM.
On to `CCOC(=O)C1=C2CN(S(=O)(=O)NC)CCN2C(c2nccs2)=N[C@H]1c1ccc(F)cc1Br` [Example 84], for which the EC50 is 100 to 500 nM.
